The test system of one assay is E. coli ATCC 25922. As to the kind of experiment: microbe, parasite or virus in culture. The source says:
(§1) A total of 18 bacterial strains relevant to orthopedic infections were used for microbiological tests, including 8 ATCC (American Type Culture Collection, ATCC, Manassas, VA, USA) and 10 clinical isolates (CI) from the Laboratory of Clinical Chemistry and Microbiology, IRCCS Ospedale Galeazzi–Sant’Ambrogio of Milan (Italy) strain collection. The ATCC strains were used for the first screening (MIC/MBC) of all the AMPs produced, while the clinical isolates were used for further MIC/MBC assays on selected AMPs. Among CI, S. epidermidis GOI1153754-03-14 has been already characterized and used in previous studies. All the strains were stocked at −80°C and working stocks were stored at −20 °C. At the occurrence, the bacteria were resuscitated in Brain Hearth Infusion (BHI, Millipore, Milan, Italy) broth at 37 °C for 18 h from the working stocks.
(§2) To determine the minimum inhibitory concentration (MIC) and the minimum bactericidal concentration (MBC), ISO20776-1 and Clinical and Laboratory Standards Institute guidelines were followed. A commercial synthetic LL-37 (Aurogene, Rome, Italy) was used as the control in the MIC and MBC assays. A stock solution of each AMP was prepared at 600 µg/mL to achieve a final concentration of 300 µg/mL. […] The MIC was determined according to the aforementioned standard guidelines. The MBC was determined by plating 2 µL of culture from each well of the MIC plates on a Tryptic Soy Agar (TSA, Millipore, Milan, Italy) plate and incubated for 24 h at 37 °C. The concentration at which there was no growth was recorded as MBC. Each experiment was carried out in triplicate. Representative MIC and MBC values for vancomycin and gentamicin were assessed to offer a benchmark comparison for the AMPs. Quality control was conducted with Staphylococcus aureus ATCC 29,213 and vancomycin according to EUCAST guidelines.

A further assay has as its system P. aeruginosa ATCC 27853. In words: microbe, parasite or virus in culture.
From the text: as §1, §2

The next assay relates to S. aureus ATCC 25923. In words: microbe, parasite or virus in culture.
From the text: as §1, §2

For the next assay, the system named is S. aureus ATCC 43300. In words: microbe, parasite or virus in culture.
From the text: as §1, §2

The subject of a further assay is S. aureus ATCC 49230. As to the kind of experiment: microbe, parasite or virus in culture.
From the text: as §1, §2

The subject of assay [1] is S. epidermidis ATCC 14990. As to the kind of experiment: microbe, parasite or virus in culture.
From the text: as §1, §2

The subject of assay [2] is S. epidermidis ATCC 35984. As to the kind of experiment: microbe, parasite or virus in culture.
From the text: as §1, §2

Assay [3] deals with S. epidermidis GOI1153754-03-14 (CI). In words: microbe, parasite or virus in culture.
From the text: as §1, §2

Another assay relates to E. coli Eco53 (CI). Particulars: E. coli Eco53 clinical isolate; triplicate.
From the text: as §1, §2

The subject of a further assay is E. coli Eco61 (CI). Particulars: E. coli Eco61 clinical isolate; triplicate.
From the text: as §1, §2

In a further assay the test system is E. coli Eco75 (CI). Particulars: E. coli Eco75 clinical isolate; triplicate.
From the text: as §1, §2

A further assay relates to P. aeruginosa Pae2 (CI). Conditions: P. aeruginosa Pae2 clinical isolate; triplicate.
From the text: as §1, §2

Another assay relates to P. aeruginosa Pae61 (CI). Particulars: P. aeruginosa Pae61 clinical isolate; triplicate.
From the text: as §1, §2

In a further assay the test system is P. aeruginosa Pae82 (CI). Particulars: P. aeruginosa Pae82 clinical isolate; triplicate.
From the text: as §1, §2

In the next assay the test system is S. aureus Sau221 (CI). Conditions: S. aureus Sau221 clinical isolate; triplicate.
From the text: as §1, §2

The test system of a further assay is S. aureus Sau39 (CI). Particulars: S. aureus Sau39 clinical isolate; triplicate.
From the text: as §1, §2

The subject of the next assay is S. aureus Sau89 (CI). Particulars: S. aureus Sau89 clinical isolate; triplicate.
From the text: as §1, §2

≈ marks a conversion by molar mass, not a printed value. Peptide text beside a SMILES is read from it. Bounds are passed on as bounds.

The record followed here is paper PMC11350787, “Antimicrobial Properties and Cytotoxicity of LL-37-Derived Synthetic Peptides to Treat Orthopedic Infections” (Antibiotics, 2024).

As for `CC[C@H](C)[C@H](NC(=O)[C@H](CCCCN)NC(=O)[C@H](CCC(=O)O)NC(=O)[C@H](CCCCN)NC(=O)[C@@H](N)CO)C(=O)NCC(=O)N[C@@H](CCCCN)C(=O)N[C@@H](CCC(=O)O)C(=O)N[C@@H](Cc1ccccc1)C(=O)N[C@@H](CCCCN)C(=O)N[C@@H](CCCNC(=N)N)C(=O)N[C@H](C(=O)N[C@H](C(=O)N[C@@H](CCC(N)=O)C(=O)N[C@@H](CCCNC(=N)N)C(=O)N[C@H](C(=O)N[C@@H](CCCCN)C(=O)N[C@@H](CC(=O)O)C(=O)N[C@@H](Cc1ccccc1)C(=O)N[C@@H](CC(C)C)C(=O)N[C@@H](CCCNC(=N)N)C(=O)N[C@@H](CC(N)=O)C(=O)N[C@@H](CC(C)C)C(=O)N[C@H](C(N)=O)C(C)C)[C@@H](C)CC)C(C)C)[C@@H](C)CC` [SK-24] (H-SKEKIGKEFKRIVQRIKDFLRNLV-NH2), the “Minimum Inhibitory Concentration (MIC)” value is given as 75.00 µg/mL in the assay on E. coli ATCC 25922 (ATCC 25922, 18 h); 150.00 µg/mL with P. aeruginosa ATCC 27853 (ATCC 27853, 18 h); 150.00 µg/mL in the assay with S. aureus ATCC 25923 (ATCC 25923, 18 h); 150.00 µg/mL with S. aureus ATCC 43300 (ATCC 43300, 18 h); 75.00 µg/mL in the assay on S. aureus ATCC 49230 (ATCC 49230, 18 h); 18.75 µg/mL in assay [1] (ATCC 14990, 18 h). Also, in assay [2] (ATCC 35984, 18 h), the “Minimum Inhibitory Concentration (MIC)” value worked out at 37.50 µg/mL. Besides, the “Minimum Bactericidal Concentration (MBC)” value in the assay with E. coli ATCC 25922 (ATCC 25922, 24 h) was 75.00 µg/mL; in the assay with P. aeruginosa ATCC 27853 (ATCC 27853, 24 h), 150.00 µg/mL; in the assay on S. aureus ATCC 25923 (ATCC 25923, 24 h) it was above 300.00 µg/mL; in the assay on S. aureus ATCC 43300 (ATCC 43300, 24 h) it was above 300.00 µg/mL; with S. aureus ATCC 49230 (ATCC 49230, 24 h), above 300.00 µg/mL; in [1] (ATCC 14990, 24 h) it was 150.00 µg/mL. Moreover, in assay [2] (ATCC 35984, 24 h), the “Minimum Bactericidal Concentration (MBC)” value is given as 300.00 µg/mL.
Take `CNC(C)C1CCC(N)C(OC2C(N)CC(N)C(OC3OCC(C)(O)C(NC)C3O)C2O)O1` (stereo not shown) [Gen, gentamicin]: the “Susceptibility category by MIC (EUCAST clinical breakpoints tables, v. 14)” value in the assay with E. coli ATCC 25922 (E. coli 25922) was “S”; in the assay with P. aeruginosa ATCC 27853 (P. aeruginosa 27853), “S”; in the assay with S. aureus ATCC 25923 (S. aureus 25923), “S”; in assay [3] (S. epidermidis GOI1153754-03-14), “R”. In addition, the MBC in the assay on E. coli ATCC 25922 (Escherichia coli, ATCC25922, 24 h, read-out: Minimum Bactericidal Concentration (MBC)) is 2.5 µg/mL (≈ 5.23 µM); with P. aeruginosa ATCC 27853 (Pseudomonas aeruginosa, ATCC27853, 24 h, read-out: Minimum Bactericidal Concentration (MBC)), 2.5 µg/mL (≈ 5.23 µM); in the assay with S. aureus ATCC 25923 (Staphylococcus aureus, ATCC25923, 24 h, read-out: Minimum Bactericidal Concentration (MBC)), 2.5 µg/mL (≈ 5.23 µM); in the assay on S. aureus ATCC 43300 (Staphylococcus aureus, ATCC43300, 24 h, read-out: Minimum Bactericidal Concentration (MBC)) it was 2.5 µg/mL (≈ 5.23 µM); in assay [3] (Staphylococcus epidermidis, read-out: Minimum Bactericidal Concentration (MBC)) it was above 20 µg/mL. The MIC in the assay on E. coli ATCC 25922 (Escherichia coli, ATCC25922, read-out: Minimum Inhibitory Concentration (MIC)) is 0.6 µg/mL (≈ 1.26 µM); in the assay on P. aeruginosa ATCC 27853 (Pseudomonas aeruginosa, ATCC27853, read-out: Minimum Inhibitory Concentration (MIC)), 0.6 µg/mL (≈ 1.26 µM); with S. aureus ATCC 25923 (Staphylococcus aureus, ATCC25923, read-out: Minimum Inhibitory Concentration (MIC)), 0.6 µg/mL (≈ 1.26 µM); in the assay on S. aureus ATCC 43300 (Staphylococcus aureus, ATCC43300, read-out: Minimum Inhibitory Concentration (MIC)) it was 0.6 µg/mL (≈ 1.26 µM); in assay [3] (Staphylococcus epidermidis, read-out: Minimum Inhibitory Concentration (MIC)), above 20 µg/mL. In addition, the “Susceptibility category by MIC (EUCAST clinical breakpoints tables, version 14)” value with S. aureus ATCC 43300 (S. aureus 43,300 as printed in text) was “S”.
`CC[C@H](C)[C@H](NC(=O)[C@H](CCCCN)NC(=O)[C@H](CCC(=O)O)NC(=O)[C@H](CCCCN)NC(=O)[C@H](CO)NC(=O)[C@H](CCCCN)NC(=O)[C@H](CCCNC(=N)N)NC(=O)[C@H](Cc1ccccc1)NC(=O)[C@H](Cc1ccccc1)NC(=O)[C@H](CC(=O)O)NC(=O)CNC(=O)[C@H](CC(C)C)NC(=O)[C@@H](N)CC(C)C)C(=O)NCC(=O)N[C@@H](CCCCN)C(=O)N[C@@H](CCC(=O)O)C(=O)N[C@@H](Cc1ccccc1)C(=O)N[C@@H](CCCCN)C(=O)N[C@@H](CCCNC(=N)N)C(=O)N[C@H](C(=O)N[C@H](C(=O)N[C@@H](CCC(N)=O)C(=O)N[C@@H](CCCNC(=N)N)C(=O)N[C@H](C(=O)N[C@@H](CCCCN)C(=O)N[C@@H](CC(=O)O)C(=O)N[C@@H](Cc1ccccc1)C(=O)N[C@@H](CC(C)C)C(=O)N[C@@H](CCCNC(=N)N)C(=O)N[C@@H](CC(N)=O)C(=O)N[C@@H](CC(C)C)C(=O)N[C@H](C(=O)N1CCC[C@H]1C(=O)N[C@@H](CCCNC(=N)N)C(=O)N[C@H](C(=O)N[C@@H](CCC(=O)O)C(=O)N[C@@H](CO)C(=O)O)[C@@H](C)O)C(C)C)[C@@H](C)CC)C(C)C)[C@@H](C)CC` [cLL-37, reference compound]: the “Minimum Bactericidal Concentration (MBC)” value is recorded as 75.00 µg/mL in the assay with E. coli ATCC 25922 (E. coli 25922, plated on TSA, 24 h 37 °C, triplicate); 75.00 µg/mL in the assay with P. aeruginosa ATCC 27853 (P. aeruginosa 27853, plated on TSA, 24 h 37 °C, triplicate); above 300.00 µg/mL in the assay with S. aureus ATCC 25923 (S. aureus 25923, plated on TSA, 24 h 37 °C, triplicate); above 300.00 µg/mL with S. aureus ATCC 43300 (S. aureus 43300, plated on TSA, 24 h 37 °C, triplicate); above 300.00 µg/mL in the assay on S. aureus ATCC 49230 (S. aureus 49230, plated on TSA, 24 h 37 °C, triplicate); 75.00 µg/mL in assay [1] (S. epidermidis 14990, 2 µL from MIC wells plated on TSA, 24 h 37 °C, triplicate). Moreover, the “Minimum Bactericidal Concentration (MBC)” value in assay [2] (S. epidermidis 35984, plated on TSA, 24 h 37 °C, triplicate) is on record as above 300.00 µg/mL; in assay [3] (S. epidermidis GOI1153754-03-14 clinical isolate, triplicate) it was above 300.00 µg/mL; in the assay on E. coli Eco53 (CI), 300.00 µg/mL; in the assay with E. coli Eco61 (CI), 75.00 µg/mL; in the assay on E. coli Eco75 (CI) it was 300.00 µg/mL; in the assay on P. aeruginosa Pae2 (CI) it was 75.00 µg/mL. For the same molecule, the “Minimum Bactericidal Concentration (MBC)” value with P. aeruginosa Pae61 (CI) is listed as 150.00 µg/mL; in the assay on P. aeruginosa Pae82 (CI), 75.00 µg/mL; in the assay with S. aureus Sau221 (CI), above 300.00 µg/mL; with S. aureus Sau39 (CI), above 300.00 µg/mL; in the assay with S. aureus Sau89 (CI) it was above 300.00 µg/mL. For the same molecule, the “Minimum Inhibitory Concentration (MIC)” value in the assay with P. aeruginosa ATCC 27853 (P. aeruginosa 27853, ISO20776-1/CLSI, triplicate) stood at 37.50 µg/mL; in the assay with S. aureus ATCC 25923 (S. aureus 25923, ISO20776-1/CLSI, triplicate), 37.50 µg/mL; in the assay with S. aureus ATCC 43300 (S. aureus 43300, ISO20776-1/CLSI, triplicate), 75.00 µg/mL; in the assay with S. aureus ATCC 49230 (S. aureus 49230, ISO20776-1/CLSI, triplicate) it was 75.00 µg/mL; in assay [1] (S. epidermidis 14990, ISO20776-1/CLSI, triplicate), 75.00 µg/mL; in assay [2] (S. epidermidis 35984, ISO20776-1/CLSI, triplicate) it was 9.38 µg/mL. In addition, the “Minimum Inhibitory Concentration (MIC)” value in the assay with E. coli Eco53 (CI) is 37.50 µg/mL; with E. coli Eco61 (CI), 37.50 µg/mL; in the assay on E. coli Eco75 (CI), 37.50 µg/mL; with P. aeruginosa Pae2 (CI), 75.00 µg/mL; with P. aeruginosa Pae61 (CI) it was 37.50 µg/mL; with P. aeruginosa Pae82 (CI), 37.50 µg/mL. Further, the “Minimum Inhibitory Concentration (MIC)” value in the assay with S. aureus Sau221 (CI) is on record as above 300.00 µg/mL; in the assay on S. aureus Sau39 (CI), 150.00 µg/mL; in the assay with S. aureus Sau89 (CI) it was above 300.00 µg/mL.
